From patent US10131653B2, “Heterocyclic compound” (TAKEDA PHARMACEUTICAL COMPANY LIMITED, priority 2015, dated 2018)

Assays:
[1] = target: T1, human OX2 receptor (Homo sapiens, UniProt O43614); experiment: Measurement of orexin receptor antagonistic activity (calcium fluorescence, FLIPRtetra); format: cell-based; conditions: 10 μM test compound, CHO cells expressing human OX2 receptor, OX-A 0.3 nM; for inhibition at 10 µM: CHO, read-out: Human Orexin2 receptor inhibition (at 10 μM)
T1 construct: expressed in transfected cells; host or cells: CHO cells
T1 sequence (O43614 1-444): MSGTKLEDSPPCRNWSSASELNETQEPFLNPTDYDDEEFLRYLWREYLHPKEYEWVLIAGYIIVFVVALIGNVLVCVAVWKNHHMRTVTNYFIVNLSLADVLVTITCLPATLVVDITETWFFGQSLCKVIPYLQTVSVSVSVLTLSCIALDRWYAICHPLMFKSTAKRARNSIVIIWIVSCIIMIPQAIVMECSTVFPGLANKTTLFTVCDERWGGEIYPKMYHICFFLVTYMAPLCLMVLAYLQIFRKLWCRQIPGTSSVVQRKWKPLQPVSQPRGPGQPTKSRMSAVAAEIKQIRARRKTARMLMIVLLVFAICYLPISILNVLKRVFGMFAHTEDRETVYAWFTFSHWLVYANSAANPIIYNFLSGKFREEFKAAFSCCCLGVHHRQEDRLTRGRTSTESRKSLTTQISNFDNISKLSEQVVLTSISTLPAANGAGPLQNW
Outline: (§1)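 Calcium fluorescence measured by FLIPRtetra every second for 2 min after orexin-A challenge, 1 nM final for OX1 and 0.3 nM final for OX2. Receptor-expressing CHO cells received compound in HEPES-buffered HBSS with 0.1% BSA just before agonist.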

[2] = target: T2, human OX1 receptor (Homo sapiens, UniProt O43613); experiment: as above; format: cell-based; conditions: 10 μM test compound, CHO cells expressing human OX1 receptor, OX-A 1 nM; for inhibition at 10 µM: CHO, read-out: Human Orexin1 receptor inhibition (at 10 μM)
T2 construct: expressed in transfected cells; host or cells: CHO cells
T2 sequence (O43613 1-425): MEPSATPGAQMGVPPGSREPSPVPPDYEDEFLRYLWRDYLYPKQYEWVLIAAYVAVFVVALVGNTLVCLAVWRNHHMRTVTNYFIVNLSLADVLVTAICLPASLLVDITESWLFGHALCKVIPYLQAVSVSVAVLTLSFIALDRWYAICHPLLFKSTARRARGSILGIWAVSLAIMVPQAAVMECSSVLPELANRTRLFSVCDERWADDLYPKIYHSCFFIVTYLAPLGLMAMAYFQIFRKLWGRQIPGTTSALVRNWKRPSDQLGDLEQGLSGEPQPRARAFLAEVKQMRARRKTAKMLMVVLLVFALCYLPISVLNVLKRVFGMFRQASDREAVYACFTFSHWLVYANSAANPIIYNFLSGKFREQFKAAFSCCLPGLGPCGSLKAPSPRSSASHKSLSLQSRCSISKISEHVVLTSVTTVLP
Outline: as §1

inhibition at 10 µM [1] | inhibition at 10 µM [2] | Human Orexin2 receptor inhibition (at 10 μM) [1] | Human Orexin1 receptor inhibition (at 10 μM) [2] | SMILES
102% | 81% | – | – | Cc1cc(N2CCN(C(=O)c3cc(Cl)ccc3-c3ncccn3)[C@H](C)CO2)nc(C)n1 [Example 195, (5-chloro-2-(pyrimidin-2-yl)phenyl)((6R)-2-(2,6-dimethylpyrimidin-4-yl)-6-methyl-1,2,5-oxadiazepan-5-yl)methanone]
100% | 89% | – | – | Cc1ccc(-c2ncccn2)c(C(=O)N2CCN(c3cc(C)nc(C)n3)O[C@@H](C)C2)c1 [Example 196, ((7S)-2-(2,6-dimethylpyrimidin-4-yl)-7-methyl-1,2,5-oxadiazepan-5-yl)(5-methyl-2-(pyrimidin-2-yl)phenyl)methanone]
102% | 96% | – | – | Cc1cc(N2CCN(C(=O)c3cc(Cl)ccc3-c3ncccn3)C[C@H](C)O2)nc(C)n1 [Example 197, (5-chloro-2-(pyrimidin-2-yl)phenyl)((7S)-2-(2,6-dimethylpyrimidin-4-yl)-7-methyl-1,2,5-oxadiazepan-5-yl)methanone]
98% | 80% | – | – | Cc1cc(N2CCN(C(=O)c3cc(F)c(F)cc3-c3ncccn3)C[C@H](C)O2)nc(C)n1 [Example 198, (4,5-difluoro-2-(pyrimidin-2-yl)phenyl)((7S)-2-(2,6-dimethylpyrimidin-4-yl)-7-methyl-1,2,5-oxadiazepan-5-yl)methanone]
100% | 42% | – | – | Cc1cc(N2CCN(C(=O)c3cc(C(F)(F)F)ccc3-n3nccn3)C[C@H](C)O2)nc(C)n1 [Example 199, ((7S)-2-(2,6-dimethylpyrimidin-4-yl)-7-methyl-1,2,5-oxadiazepan-5-yl)(2-(2H-1,2,3-triazol-2-yl)-5-(trifluoromethyl)phenyl)methanone]
100% | 83% | – | – | Cc1cc(N2CCN(C(=O)c3ccc(Cl)cc3-n3nccn3)C[C@H](C)O2)nc(C)n1 [Example 200, (4-chloro-2-(2H-1,2,3-triazol-2-yl)phenyl)((7S)-2-(2,6-dimethylpyrimidin-4-yl)-7-methyl-1,2,5-oxadiazepan-5-yl)methanone]
101% | 60% | – | – | CCc1ccc(-n2nccn2)c(C(=O)N2CCN(c3cc(C)nc(C)n3)O[C@@H](C)C2)c1 [Example 201, ((7S)-2-(2,6-dimethylpyrimidin-4-yl)-7-methyl-1,2,5-oxadiazepan-5-yl)(5-ethyl-2-(2H-1,2,3-triazol-2-yl)phenyl)methanone]
102% | 17% | – | – | Cc1cc(N2CCN(C(=O)c3cc(C(F)(F)F)ccc3-n3nccn3)CCO2)nc(C)n1 [Example 202, (2-(2,6-dimethylpyrimidin-4-yl)-1,2,5-oxadiazepan-5-yl)(2-(2H-1,2,3-triazol-2-yl)-5-(trifluoromethyl)phenyl)methanone]

More lines, now with the values behind:

SMILES | inhibition at 10 µM [1] | inhibition at 10 µM [2] | Human Orexin2 receptor inhibition (at 10 μM) [1] | Human Orexin1 receptor inhibition (at 10 μM) [2]
Cc1nc(C(F)F)cc(N2C[C@H](C)N(C(=O)c3cc(F)ccc3-n3nccn3)[C@H](C)CO2)n1 [Example 180, ((4S,6R)-2-(6-(difluoromethyl)-2-methylpyrimidin-4-yl)-4,6-dimethyl-1,2,5-oxadiazepan-5-yl)(5-fluoro-2-(2H-1,2,3-triazol-2-yl)phenyl)methanone] | 101% | 90% | – | –
Cc1nc(N2C[C@H](C)N(C(=O)c3cc(F)ccc3-n3nccn3)[C@H](C)CO2)cc(C(F)(F)F)n1 [Example 181, ((4S,6R)-4,6-dimethyl-2-(2-methyl-6-(trifluoromethyl)pyrimidin-4-yl)-1,2,5-oxadiazepan-5-yl)(5-fluoro-2-(2H-1,2,3-triazol-2-yl)phenyl)methanone] | 83% | 70% | – | –
Cc1nc(C(F)F)cc(N2C[C@H](C)N(C(=O)c3cc(Cl)ccc3-n3nccn3)[C@H](C)CO2)n1 [Example 182, (5-chloro-2-(2H-1,2,3-triazol-2-yl)phenyl)((4S,6R)-2-(6-(difluoromethyl)-2-methylpyrimidin-4-yl)-4,6-dimethyl-1,2,5-oxadiazepan-5-yl)methanone] | 98% | 100% | – | –
Cc1nc(N2C[C@H](C)N(C(=O)c3cc(Cl)ccc3-n3nccn3)[C@H](C)CO2)cc(C(F)(F)F)n1 [Example 183, (5-chloro-2-(2H-1,2,3-triazol-2-yl)phenyl)((4S,6R)-4,6-dimethyl-2-(2-methyl-6-(trifluoromethyl)pyrimidin-4-yl)-1,2,5-oxadiazepan-5-yl)methanone] | 103% | 105% | – | –
Cc1nccc(N2C[C@H](C)N(C(=O)c3ccccc3-c3nccs3)[C@H](C)CO2)n1 [Example 184, ((4S,6R)-4,6-dimethyl-2-(2-methylpyrimidin-4-yl)-1,2,5-oxadiazepan-5-yl)(2-(1,3-thiazol-2-yl)phenyl)methanone] | 102% | 100% | – | –
Cc1cc(N2C[C@@H](C)N(C(=O)c3ccccc3-n3nccn3)[C@@H](C)CO2)nc(C)n1 [Example 185, ((4R,6S)-2-(2,6-dimethylpyrimidin-4-yl)-4,6-dimethyl-1,2,5-oxadiazepan-5-yl)(2-(2H-1,2,3-triazol-2-yl)phenyl)methanone] | 31% | 22% | – | –
Cc1cc(N2C[C@@H](C)N(C(=O)c3ccccc3-c3nccs3)[C@@H](C)CO2)nc(C)n1 [Example 186, ((4R,6S)-2-(2,6-dimethylpyrimidin-4-yl)-4,6-dimethyl-1,2,5-oxadiazepan-5-yl)(2-(1,3-thiazol-2-yl)phenyl)methanone] | 66% | 23% | – | –
Cc1cc(N2CC(C)N(C(=O)c3ccccc3-n3nccn3)CCO2)nc(C)n1 (stereo not shown) [Example 187, (2-(2,6-dimethylpyrimidin-4-yl)-4-methyl-1,2,5-oxadiazepan-5-yl)(2-(2H-1,2,3-triazol-2-yl)phenyl)methanone] | 103% | 100% | – | –
Cc1cc(N2OCCN(C(=O)c3ccccc3-n3nccn3)CC2C)nc(C)n1 (stereo not shown) [Example 188, (2-(2,6-dimethylpyrimidin-4-yl)-3-methyl-1,2,5-oxadiazepan-5-yl)(2-(2H-1,2,3-triazol-2-yl)phenyl)methanone] | 29% | 13% | – | –
Cc1cc(N2CC(C)N(C(=O)c3ccccc3-n3nccn3)C[C@H](C)O2)nc(C)n1 (stereo partly drawn) [Example 189, ((7S)-2-(2,6-dimethylpyrimidin-4-yl)-4,7-dimethyl-1,2,5-oxadiazepan-5-yl)(2-(2H-1,2,3-triazol-2-yl)phenyl)methanone] | 57% | 37% | – | –
Cc1cc(N2C[C@H](C)N(C(=O)c3ccccc3-n3nccn3)CC(C)O2)nc(C)n1 (stereo partly drawn) [Example 190, ((4S)-2-(2,6-dimethylpyrimidin-4-yl)-4,7-dimethyl-1,2,5-oxadiazepan-5-yl)(2-(2H-1,2,3-triazol-2-yl)phenyl)methanone] | 111% | 107% | – | –
Cc1cc(N2C[C@H](C)N(C(=O)c3ccccc3-n3nccn3)CC(C)O2)nc(C)n1 (stereo partly drawn) [Example 191, ((4S)-2-(2,6-dimethylpyrimidin-4-yl)-4,7-dimethyl-1,2,5-oxadiazepan-5-yl)(2-(2H-1,2,3-triazol-2-yl)phenyl)methanone] | – | – | 109% | 106%
Cc1cc(N2CCN(C(=O)c3ccccc3-n3nccn3)C(C)C(C)O2)nc(C)n1 (stereo not shown) [Example 192, (2-(2,6-dimethylpyrimidin-4-yl)-6,7-dimethyl-1,2,5-oxadiazepan-5-yl)(2-(2H-1,2,3-triazol-2-yl)phenyl)methanone] | 101% | – | – | 64%
Cc1cc(N2CCN(C(=O)c3ccccc3-n3nccn3)C(C)C(C)O2)nc(C)n1 (stereo not shown) [Example 193, (2-(2,6-dimethylpyrimidin-4-yl)-6,7-dimethyl-1,2,5-oxadiazepan-5-yl)(2-(2H-1,2,3-triazol-2-yl)phenyl)methanone] | – | – | 103% | 89%
Cc1cc(N2CCN(C(=O)c3cc(Cl)ccc3-n3nccn3)[C@H](C)CO2)nc(C)n1 [Example 194, (5-chloro-2-(2H-1,2,3-triazol-2-yl)phenyl)((6R)-2-(2,6-dimethylpyrimidin-4-yl)-6-methyl-1,2,5-oxadiazepan-5-yl)methanone] | 100% | 66% | – | –
